Results published in ChEMBL document CHEMBL4507262, “Data for DCP probe A-1596586” (2021).

Legend:
[1] = biological target: Serine/threonine-protein kinase 26 (Homo sapiens) (UniProt Q9P289); details: Compound concentration 1000.0 nM
[2] = biological target: Histamine H4 receptor (Homo sapiens) (UniProt Q9H3N8); details: Compound concentration 10.0 uM
[3] = biological target: Serine/threonine-protein kinase Nek9 (Homo sapiens) (UniProt Q8TD19); details: Compound concentration 1000.0 nM
[4] = biological target: Epithelial discoidin domain-containing receptor 1 (Homo sapiens) (UniProt Q08345); details: Compound concentration 1000.0 nM
[5] = biological target: Mitogen-activated protein kinase 15 (Homo sapiens) (UniProt Q8TD08); details: Compound concentration 1000.0 nM
[6] = biological target: Myotonin-protein kinase (Homo sapiens) (UniProt Q09013); details: Compound concentration 1000.0 nM
[7] = biological target: Mitogen-activated protein kinase kinase kinase kinase 4 (Homo sapiens) (UniProt O95819); details: Compound concentration 1000.0 nM
[8] = biological target: Ephrin type-A receptor 7 (Homo sapiens) (UniProt Q15375); details: Compound concentration 1000.0 nM
[9] = biological target: Serine/threonine-protein kinase ULK2 (Homo sapiens) (UniProt Q8IYT8); details: Compound concentration 1000.0 nM
[10] = biological target: Cyclin-dependent kinase 2 (Homo sapiens) (UniProt P24941); details: Compound concentration 1000.0 nM
[11] = biological target: Protein-tyrosine kinase 2-beta (Homo sapiens) (UniProt Q14289); details: Compound concentration 1000.0 nM
[12] = biological target: Phosphatidylinositol 4,5-bisphosphate 3-kinase catalytic subunit delta isoform (Homo sapiens) (UniProt O00329); details: Compound concentration 1000.0 nM
[13] = tested on: Mast/stem cell growth factor receptor Kit (Homo sapiens), P10721 [A829P]; details: Compound concentration 1000.0 nM
Sequence of Mast/stem cell growth factor receptor Kit (Homo sapiens), P10721 [A829P] (P10721 whole entry A829P): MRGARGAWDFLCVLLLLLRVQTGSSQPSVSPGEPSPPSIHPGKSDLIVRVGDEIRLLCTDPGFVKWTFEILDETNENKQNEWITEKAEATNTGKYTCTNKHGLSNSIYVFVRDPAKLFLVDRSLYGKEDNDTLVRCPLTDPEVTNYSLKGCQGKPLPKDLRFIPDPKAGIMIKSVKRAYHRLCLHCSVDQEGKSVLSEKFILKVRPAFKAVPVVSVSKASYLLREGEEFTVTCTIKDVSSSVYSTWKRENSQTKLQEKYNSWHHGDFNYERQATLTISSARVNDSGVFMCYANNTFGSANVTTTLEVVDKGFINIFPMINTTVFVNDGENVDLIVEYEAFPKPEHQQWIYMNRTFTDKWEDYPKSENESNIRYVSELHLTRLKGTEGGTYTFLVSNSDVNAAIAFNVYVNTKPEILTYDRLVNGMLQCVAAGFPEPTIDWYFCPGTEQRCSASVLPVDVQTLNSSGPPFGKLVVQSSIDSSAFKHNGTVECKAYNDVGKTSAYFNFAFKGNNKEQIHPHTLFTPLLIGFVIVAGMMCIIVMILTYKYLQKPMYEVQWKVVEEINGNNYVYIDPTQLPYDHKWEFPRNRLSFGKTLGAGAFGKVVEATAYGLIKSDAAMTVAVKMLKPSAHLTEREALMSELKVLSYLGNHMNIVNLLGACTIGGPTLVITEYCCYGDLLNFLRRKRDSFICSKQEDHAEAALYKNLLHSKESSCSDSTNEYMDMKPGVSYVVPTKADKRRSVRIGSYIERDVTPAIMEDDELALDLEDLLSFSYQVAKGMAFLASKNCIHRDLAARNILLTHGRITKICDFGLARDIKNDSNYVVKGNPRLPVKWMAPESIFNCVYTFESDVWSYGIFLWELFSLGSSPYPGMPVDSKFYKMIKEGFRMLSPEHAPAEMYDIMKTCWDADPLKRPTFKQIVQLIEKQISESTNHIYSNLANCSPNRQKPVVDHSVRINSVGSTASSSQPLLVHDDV

[14] = biological target: Mitogen-activated protein kinase 7 (Homo sapiens) (UniProt Q13164); details: Compound concentration 1000.0 nM
Sequence of Mitogen-activated protein kinase 7 (Homo sapiens) (Q13164 2-816 limits assumed): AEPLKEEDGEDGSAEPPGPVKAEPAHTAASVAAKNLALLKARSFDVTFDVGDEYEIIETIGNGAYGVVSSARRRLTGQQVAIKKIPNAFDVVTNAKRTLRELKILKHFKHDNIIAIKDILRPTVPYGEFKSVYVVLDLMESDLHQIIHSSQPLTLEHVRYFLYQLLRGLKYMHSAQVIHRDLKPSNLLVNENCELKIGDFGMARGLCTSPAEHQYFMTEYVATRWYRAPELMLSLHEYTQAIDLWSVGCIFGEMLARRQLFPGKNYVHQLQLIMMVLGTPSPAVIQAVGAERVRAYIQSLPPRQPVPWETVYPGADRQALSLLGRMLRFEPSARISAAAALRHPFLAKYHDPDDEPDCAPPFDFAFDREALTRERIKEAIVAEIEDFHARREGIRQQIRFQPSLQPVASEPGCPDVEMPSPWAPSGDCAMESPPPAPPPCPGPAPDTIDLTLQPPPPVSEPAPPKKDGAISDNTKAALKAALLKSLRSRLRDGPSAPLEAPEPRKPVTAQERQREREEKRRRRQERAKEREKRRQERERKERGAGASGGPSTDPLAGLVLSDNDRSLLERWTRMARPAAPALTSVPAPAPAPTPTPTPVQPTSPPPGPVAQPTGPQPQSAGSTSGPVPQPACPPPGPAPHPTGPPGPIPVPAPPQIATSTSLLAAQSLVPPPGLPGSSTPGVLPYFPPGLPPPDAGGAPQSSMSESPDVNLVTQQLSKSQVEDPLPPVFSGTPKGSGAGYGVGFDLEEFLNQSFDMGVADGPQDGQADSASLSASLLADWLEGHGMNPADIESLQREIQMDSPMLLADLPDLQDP

[15] = biological target: Tyrosine-protein kinase Lck (Homo sapiens) (UniProt P06239); details: Compound concentration 1000.0 nM
[16] = biological target: Ephrin type-B receptor 6 (Homo sapiens) (UniProt O15197); details: Compound concentration 1000.0 nM
[17] = biological target: Dual specificity tyrosine-phosphorylation-regulated kinase 1B (Homo sapiens) (UniProt Q9Y463); details: Compound concentration 1000.0 nM
[18] = biological target: Sigma non-opioid intracellular receptor 1 (Homo sapiens, UniProt Q99720); assay: sigma (non-selective) (h) Eurofins-Cerep binding assay; design: ligand concentration 10 nM; details: filed as agonist, Compound concentration 10.0 uM
[19] = biological target: Substance-K receptor (Homo sapiens) (UniProt P21452); assay: NK2 (h) Eurofins-Cerep binding assay; design: ligand concentration 0.1 nM; details: filed as agonist, Compound concentration 10.0 uM
[20] = biological target: Protein kinase C delta type (Homo sapiens) (UniProt Q05655); details: Compound concentration 1000.0 nM
Sequence of Protein kinase C delta type (Homo sapiens) (Q05655 whole entry, looked up): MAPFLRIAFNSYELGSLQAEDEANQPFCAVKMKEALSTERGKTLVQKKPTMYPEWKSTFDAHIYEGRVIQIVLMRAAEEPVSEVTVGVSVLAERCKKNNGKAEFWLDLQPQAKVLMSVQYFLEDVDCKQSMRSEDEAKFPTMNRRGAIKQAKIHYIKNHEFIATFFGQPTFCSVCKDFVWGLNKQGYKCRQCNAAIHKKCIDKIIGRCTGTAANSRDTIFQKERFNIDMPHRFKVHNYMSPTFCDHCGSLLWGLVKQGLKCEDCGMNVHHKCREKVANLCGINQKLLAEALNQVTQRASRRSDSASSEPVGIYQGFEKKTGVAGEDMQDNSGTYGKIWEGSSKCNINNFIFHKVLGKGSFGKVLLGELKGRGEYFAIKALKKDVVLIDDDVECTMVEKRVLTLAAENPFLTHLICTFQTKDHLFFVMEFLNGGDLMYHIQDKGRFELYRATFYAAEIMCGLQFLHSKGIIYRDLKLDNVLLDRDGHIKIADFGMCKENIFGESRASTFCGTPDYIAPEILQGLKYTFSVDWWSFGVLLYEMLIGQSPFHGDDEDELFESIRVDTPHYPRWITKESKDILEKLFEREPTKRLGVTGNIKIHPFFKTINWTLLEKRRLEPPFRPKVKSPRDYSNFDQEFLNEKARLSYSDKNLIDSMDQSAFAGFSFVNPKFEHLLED

[21] = biological target: Glucocorticoid receptor (Homo sapiens) (UniProt P04150); assay: GR (h) Eurofins-Cerep binding assay; design: ligand concentration 1.5 nM; details: filed as agonist, Compound concentration 10.0 uM
Sequence of Glucocorticoid receptor (Homo sapiens) (P04150 whole entry): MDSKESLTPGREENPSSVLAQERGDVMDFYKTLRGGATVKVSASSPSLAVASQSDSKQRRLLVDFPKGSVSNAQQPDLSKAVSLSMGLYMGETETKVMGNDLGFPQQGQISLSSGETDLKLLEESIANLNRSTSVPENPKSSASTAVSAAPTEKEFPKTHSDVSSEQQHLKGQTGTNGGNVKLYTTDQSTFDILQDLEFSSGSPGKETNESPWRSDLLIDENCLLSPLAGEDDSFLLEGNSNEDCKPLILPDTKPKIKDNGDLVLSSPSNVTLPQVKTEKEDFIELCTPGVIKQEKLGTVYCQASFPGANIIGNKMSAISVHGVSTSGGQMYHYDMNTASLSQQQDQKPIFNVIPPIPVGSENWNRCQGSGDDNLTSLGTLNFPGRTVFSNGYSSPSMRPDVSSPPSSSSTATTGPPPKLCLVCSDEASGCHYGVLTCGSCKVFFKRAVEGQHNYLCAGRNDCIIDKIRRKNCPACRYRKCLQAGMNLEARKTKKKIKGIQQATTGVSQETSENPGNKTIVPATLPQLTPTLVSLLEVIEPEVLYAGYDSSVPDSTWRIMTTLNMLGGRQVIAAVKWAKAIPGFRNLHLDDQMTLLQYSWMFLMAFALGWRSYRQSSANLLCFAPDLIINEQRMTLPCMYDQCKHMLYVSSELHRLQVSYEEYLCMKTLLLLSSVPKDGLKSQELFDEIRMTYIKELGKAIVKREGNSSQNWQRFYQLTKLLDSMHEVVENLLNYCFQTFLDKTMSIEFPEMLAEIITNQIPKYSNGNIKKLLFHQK

[22] = biological target: Mitogen-activated protein kinase kinase kinase 10 (Homo sapiens) (UniProt Q02779); details: Compound concentration 1000.0 nM
[23] = biological target: D(2) dopamine receptor (Homo sapiens) (UniProt P14416); details: Compound concentration 10.0 uM
[24] = biological target: Serine/threonine-protein kinase ULK1 (Homo sapiens) (UniProt O75385); details: Compound concentration 1000.0 nM
[25] = biological target: Sodium-dependent noradrenaline transporter (Homo sapiens) (UniProt P23975); assay: norepinephrine transporter (h) Eurofins-Cerep binding assay; design: ligand concentration 1 nM; details: filed as antagonist, Compound concentration 10.0 uM
Sequence of Sodium-dependent noradrenaline transporter (Homo sapiens) (P23975 whole entry): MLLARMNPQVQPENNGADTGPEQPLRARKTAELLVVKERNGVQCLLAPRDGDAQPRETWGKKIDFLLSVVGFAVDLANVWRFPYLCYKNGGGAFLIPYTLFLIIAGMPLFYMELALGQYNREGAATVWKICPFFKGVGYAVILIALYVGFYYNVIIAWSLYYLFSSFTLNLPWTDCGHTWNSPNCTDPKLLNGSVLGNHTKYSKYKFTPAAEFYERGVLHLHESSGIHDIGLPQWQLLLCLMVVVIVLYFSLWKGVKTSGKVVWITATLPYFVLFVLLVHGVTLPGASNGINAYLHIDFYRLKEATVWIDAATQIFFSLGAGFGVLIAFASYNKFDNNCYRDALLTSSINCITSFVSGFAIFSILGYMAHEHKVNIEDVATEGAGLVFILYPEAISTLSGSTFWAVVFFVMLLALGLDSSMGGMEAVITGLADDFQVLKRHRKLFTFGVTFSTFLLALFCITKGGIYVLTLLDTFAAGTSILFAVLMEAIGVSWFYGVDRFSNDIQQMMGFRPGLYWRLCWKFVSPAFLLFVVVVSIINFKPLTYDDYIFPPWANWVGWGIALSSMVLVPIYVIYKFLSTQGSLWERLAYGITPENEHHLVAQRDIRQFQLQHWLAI

[26] = biological target: D(4) dopamine receptor (Homo sapiens) (UniProt P21917); details: Compound concentration 10.0 uM
[27] = biological target: Serine/threonine-protein kinase OSR1 (Homo sapiens) (UniProt O95747); details: Compound concentration 1000.0 nM
[28] = biological target: Protein kinase C theta type (Homo sapiens) (UniProt Q04759); details: Compound concentration 1000.0 nM
[29] = biological target: Eukaryotic translation initiation factor 2-alpha kinase 1 (Homo sapiens) (UniProt Q9BQI3); details: Compound concentration 1000.0 nM
[30] = tested on: Hepatocyte growth factor receptor (Homo sapiens), P08581 [Y1235D]; details: Compound concentration 1000.0 nM
[31] = biological target: Sodium-dependent dopamine transporter (Homo sapiens) (UniProt Q01959); assay: dopamine transporter (h) Eurofins-Cerep binding assay; design: ligand concentration 4 nM; details: filed as antagonist, Compound concentration 10.0 uM
[32] = tested on: Mast/stem cell growth factor receptor Kit (Homo sapiens), P10721 [D816V]; details: Compound concentration 1000.0 nM
Sequence of Mast/stem cell growth factor receptor Kit (Homo sapiens), P10721 [D816V] (P10721 whole entry D816V): as the sequence (P10721 whole entry A829P) above, with D816V, P829A counted along it

[33] = biological target: Uncharacterized serine/threonine-protein kinase SBK3 (Homo sapiens) (UniProt P0C264); details: Compound concentration 1000.0 nM
Sequence of Uncharacterized serine/threonine-protein kinase SBK3 (Homo sapiens) (P0C264 whole entry): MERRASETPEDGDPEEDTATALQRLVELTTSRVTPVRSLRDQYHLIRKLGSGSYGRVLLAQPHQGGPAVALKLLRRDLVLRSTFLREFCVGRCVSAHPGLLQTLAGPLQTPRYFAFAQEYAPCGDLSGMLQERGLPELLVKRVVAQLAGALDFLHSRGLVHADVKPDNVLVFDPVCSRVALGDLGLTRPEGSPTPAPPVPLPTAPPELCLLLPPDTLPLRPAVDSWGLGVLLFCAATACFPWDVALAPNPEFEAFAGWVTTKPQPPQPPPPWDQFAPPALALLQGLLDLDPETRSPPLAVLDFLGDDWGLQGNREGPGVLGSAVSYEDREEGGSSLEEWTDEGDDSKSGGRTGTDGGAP

[34] = biological target: TGF-beta receptor type-2 (Homo sapiens) (UniProt P37173); details: Compound concentration 1000.0 nM
[35] = tested on: Epidermal growth factor receptor (Homo sapiens), P00533 [L858R,T790M]; details: Compound concentration 1000.0 nM
[36] = biological target: Dual specificity mitogen-activated protein kinase kinase 6 (Homo sapiens) (UniProt P52564); details: Compound concentration 1000.0 nM
[37] = biological target: Mitogen-activated protein kinase kinase kinase 3 (Homo sapiens) (UniProt Q99759); details: Compound concentration 1000.0 nM
[38] = biological target: 5'-AMP-activated protein kinase catalytic subunit alpha-2 (Homo sapiens) (UniProt P54646); details: Compound concentration 1000.0 nM
[39] = biological target: Phosphatidylinositol 4,5-bisphosphate 3-kinase catalytic subunit beta isoform (Homo sapiens) (UniProt P42338); details: Compound concentration 1000.0 nM
[40] = biological target: Inhibitor of nuclear factor kappa-B kinase subunit alpha (Homo sapiens) (UniProt O15111); details: Compound concentration 1000.0 nM
[41] = biological target: Sodium- and chloride-dependent GABA transporter 1 (Rattus norvegicus) (UniProt P23978); assay: GABA transporter Eurofins-Cerep binding assay; design: ligand concentration 10 nM; details: filed as antagonist, Compound concentration 10.0 uM
[42] = biological target: LIM domain kinase 2 (Homo sapiens) (UniProt P53671); details: Compound concentration 1000.0 nM
Sequence of LIM domain kinase 2 (Homo sapiens) (P53671 whole entry, looked up, the tested form may be a part): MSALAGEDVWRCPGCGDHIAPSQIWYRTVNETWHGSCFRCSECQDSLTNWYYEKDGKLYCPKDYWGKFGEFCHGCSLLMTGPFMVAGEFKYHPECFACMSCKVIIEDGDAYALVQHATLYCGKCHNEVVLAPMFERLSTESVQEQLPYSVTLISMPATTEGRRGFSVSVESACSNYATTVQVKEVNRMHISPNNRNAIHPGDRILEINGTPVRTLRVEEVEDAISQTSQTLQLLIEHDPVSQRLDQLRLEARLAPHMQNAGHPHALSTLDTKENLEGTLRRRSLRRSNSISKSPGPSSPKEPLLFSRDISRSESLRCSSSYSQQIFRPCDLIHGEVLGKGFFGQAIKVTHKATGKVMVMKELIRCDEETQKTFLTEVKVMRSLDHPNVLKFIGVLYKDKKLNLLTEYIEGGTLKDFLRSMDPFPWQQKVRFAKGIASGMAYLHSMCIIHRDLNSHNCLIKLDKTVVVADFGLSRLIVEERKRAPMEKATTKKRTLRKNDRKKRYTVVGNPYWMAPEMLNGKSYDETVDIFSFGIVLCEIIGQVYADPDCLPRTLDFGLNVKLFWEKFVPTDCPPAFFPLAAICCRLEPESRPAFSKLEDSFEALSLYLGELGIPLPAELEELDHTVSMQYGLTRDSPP

[43] = biological target: Ephrin type-B receptor 1 (Homo sapiens) (UniProt P54762); details: Compound concentration 1000.0 nM
[44] = biological target: Alpha-1D adrenergic receptor (Homo sapiens) (UniProt P25100); details: Compound concentration 10.0 uM
[45] = tested on: Tyrosine-protein kinase ABL1 (Homo sapiens), P00519 [H396P]; details: Compound concentration 1000.0 nM

## COc1ccc2c(c1)O[C@@H](c1ccc(OC)c(OC)c1)C[C@H]2NC(=O)C1(c2ccc3c(c2)OC(F)(F)O3)CC1 [A-1596586]
[1]
  residual activity: 75%
[2]
  inhibition: -2.97%
[3]
  residual activity: 100%
[4]
  residual activity: 100%
[5]
  residual activity: 100%
[6]
  residual activity: 93%
[7]
  residual activity: 100%
[8]
  residual activity: 86%
[9]
  residual activity: 77%
[10]
  residual activity: 99%
[11]
  residual activity: 100%
[12]
  residual activity: 97%
[13]
  residual activity: 75%
[14]
  residual activity: 100%
[15]
  residual activity: 100%
[16]
  residual activity: 61%
[17]
  residual activity: 100%
[18]
  % Inhibition of Control Specific Binding (Mean n=2): 35.1%
[19]
  % Inhibition of Control Specific Binding (Mean n=2): 11.5%
[20]
  residual activity: 100%
[21]
  % Inhibition of Control Specific Binding (Mean n=2): 22.1%
[22]
  residual activity: 100%
[23]
  inhibition: 2.62%
[24]
  residual activity: 75%
[25]
  % Inhibition of Control Specific Binding (Mean n=2): 23.5%
[26]
  inhibition: -7.47%
[27]
  residual activity: 90%
[28]
  residual activity: 98%
[29]
  residual activity: 98%
[30]
  residual activity: 100%
[31]
  % Inhibition of Control Specific Binding (Mean n=2): 6.1%
[32]
  residual activity: 92%
[33]
  residual activity: 100%
[34]
  residual activity: 87%
[35]
  residual activity: 100%
[36]
  residual activity: 100%
[37]
  residual activity: 84%
[38]
  residual activity: 100%
[39]
  residual activity: 89%
[40]
  residual activity: 95%
[41]
  % Inhibition of Control Specific Binding (Mean n=2): -17.9%
[42]
  residual activity: 100%
[43]
  residual activity: 87%
[44]
  inhibition: 2.75%
[45]
  residual activity: 86%

## COc1ccc2c(c1)O[C@H](c1ccc(OC)c(OC)c1)C[C@@H]2NC(=O)C1(c2ccc3c(c2)OC(F)(F)O3)CC1 [A-1596584]
[1]
  residual activity: 84%
[2]
  inhibition: 6.21%
[3]
  residual activity: 100%
[4]
  residual activity: 100%
[5]
  residual activity: 100%
[6]
  residual activity: 94%
[7]
  residual activity: 100%
[8]
  residual activity: 100%
[9]
  residual activity: 100%
[10]
  residual activity: 100%
[11]
  residual activity: 100%
[12]
  residual activity: 85%
[13]
  residual activity: 69%
[14]
  residual activity: 100%
[15]
  residual activity: 100%
[16]
  residual activity: 85%
[17]
  residual activity: 91%
[18]
  % Inhibition of Control Specific Binding (Mean n=2): 33.1%
[19]
  % Inhibition of Control Specific Binding (Mean n=2): 11.5%
[20]
  residual activity: 100%
[21]
  % Inhibition of Control Specific Binding (Mean n=2): 13.7%
[22]
  residual activity: 97%
[23]
  inhibition: -7.27%
[24]
  residual activity: 88%
[25]
  % Inhibition of Control Specific Binding (Mean n=2): 18.2%
[26]
  inhibition: -6.5%
[27]
  residual activity: 98%
[28]
  residual activity: 100%
[29]
  residual activity: 100%
[30]
  residual activity: 100%
[31]
  % Inhibition of Control Specific Binding (Mean n=2): 25.8%
[32]
  residual activity: 99%
[33]
  residual activity: 100%
[34]
  residual activity: 100%
[35]
  residual activity: 96%
[36]
  residual activity: 100%
[37]
  residual activity: 87%
[38]
  residual activity: 98%
[39]
  residual activity: 100%
[40]
  residual activity: 89%
[41]
  % Inhibition of Control Specific Binding (Mean n=2): -15.1%
[42]
  residual activity: 100%
[43]
  residual activity: 100%
[44]
  inhibition: 0.16%
[45]
  residual activity: 98%
